US20260248783A1 (ASCLETIS BIOSCIENCE CO., LTD., priority 2021, published 2026)

These molecules were tested against T1, PD-1/PD-L1 (Homo sapiens, UniProt Q9NZQ7) (assay: PD-1/PD-L1 Homogeneous Time-Resolved Fluorescence (HTRF) Binding Assay). Settings: PD-1/PD-L1 HTRF activity; 3 nM PD1, 10 nM PD-L1, 25° C.
T1 construct: Recombinant human PD-L1 protein (19-238) with a Histag at the C-terminus; purchased AcroBiosystems PD1-H5229 (PD-L1); PD1-H5257 (PD-1)
Method: Example 107. PD-1/PD-L1 Homogeneous Time-Resolved Fluorescence (HTRF) Binding Assay
The assays were conducted in a standard black 384-well polystyrene plate with a final volume of 20 μL. Inhibitors were first serially diluted in DMSO and then added to the plate wells before the addition of other reaction components. The final concentration of DMSO in the assay was 1%. The assays were carried out at 25° C. in the PBS buffer (pH 7.4) with 0.05% Tween-20 and 0.1% BSA. Recombinant human PD-L1 protein (19-238) with a Histag at the C-terminus was purchased from AcroBiosystems (PD1-H5229). Recombinant human PD-1 protein (25-167) with Fe tag at the C-terminus was also purchased from AcroBiosystems (PD1-H5257). PD-L1 and PD-1 proteins were diluted in the assay buffer and 10 μL was added to the plate well. Plates were centrifuged and proteins were preincubated with inhibitors for 40 minutes. The incubation was followed by the addition of 10 μL of HTRF detection buffer supplemented with Europium cryptate-labeled anti-human IgG (PerkinElmer-AD0212) specific for Fe and anti-His antibody conjugated to SureLight®—Allophycocyanin (APC, PerkinElmer-AD0059H). After centrifugation, the plate was incubated at 25° C. for 60 min. before reading on a PHERAstar FS plate reader (665 nm/620 nm ratio). Final concentrations in the assay were […], 10 nM PD-L1, 1 nM europium anti-human IgG and 20 nM anti-His-Allophycocyanin. IC50 determination was performed by fitting the curve of percent control activity versus the log of the inhibitor concentration.

T1 sequence (Q9NZQ7 19-238): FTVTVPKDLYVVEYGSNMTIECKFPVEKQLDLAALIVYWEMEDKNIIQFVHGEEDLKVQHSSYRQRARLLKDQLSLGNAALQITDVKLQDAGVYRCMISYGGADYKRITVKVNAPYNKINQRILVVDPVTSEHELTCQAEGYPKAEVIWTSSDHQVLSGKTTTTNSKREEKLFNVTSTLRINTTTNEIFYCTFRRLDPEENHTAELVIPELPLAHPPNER

SMILES | IC50 [nM]
Cc1cn2cc(-c3cccc(-c4cccc(-c5cc6c(=O)n(CCNCC7CCCN7)c(C)cn6c5)c4Cl)c3Cl)cc2c(=O)n1CCNCC1CCCN1 (stereo not shown) [Compound 55, 7,7′-(2,2′-dichloro-[1,1′-biphenyl]-3,3′-diyl)bis(3-methyl-2-(2-((pyrrolidin-2-ylmethyl)amino)ethyl)pyrrolo[1,2-a]pyrazin-1(2H)-one)] | ≥ 100
Cc1cn2cc(-c3cccc(-c4cccc(-c5cc6c(=O)n(CCNCC(O)CC(=O)O)c(C)cn6c5)c4Cl)c3Cl)cc2c(=O)n1CCNCC(O)CC(=O)O (stereo not shown) [Compound 56, 4,4′-((((2,2′-dichloro-[1,1′-biphenyl]-3,3′-diyl)bis(3-methyl-1-oxopyrrolo[1,2-a]pyrazine-7,2(1H)-diyl))bis(ethane-2,1-diyl))bis(azanediyl))bis(3-hydroxybutanoic acid)] | ≥ 100
Cc1cn2nc(-c3cccc(-c4cccc(-c5cc6c(=O)n(CCN[C@H](C(=O)O)[C@@H](C)O)c(C)cn6n5)c4Cl)c3Cl)cc2c(=O)n1CCN[C@H](C(=O)O)[C@@H](C)O [Compound 60, (2S,2'S,3R,3′R)-2,2′-((((2,2′-dichloro-[1,1′-biphenyl]-3,3′-diyl)bis(6-methyl-4-oxopyrazolo[1,5-a]pyrazine-2,5(4H)-diyl))bis(ethane-2,1-diyl))bis(azanediyl)) bis(3-hydroxybutanoic acid)] | 10 to 100
Cc1nn2cc(-c3cccc(-c4cccc(-c5cc6c(=O)n(CCN[C@@H](CO)C(=O)O)c(C)nn6c5)c4Cl)c3Cl)cc2c(=O)n1CCN[C@@H](CO)C(=O)O [Compound 64, (2S,2'S)-2,2′-((((2,2′-dichloro-[1,1′-biphenyl]-3,3′-diyl)bis(2-methyl-4-oxopyrrolo[2,1-f][1,2,4]triazine-6,3(4H)-diyl))bis(ethane-2,1-diyl))bis(azanediyl))bis(3-hydroxypropanoic acid)] | 10 to 100
CCc1nn2cc(-c3cccc(-c4cccc(-c5cc6c(=O)n(CCN[C@@H](CO)C(=O)O)c(CC)nn6c5)c4Cl)c3Cl)cc2c(=O)n1CCN[C@@H](CO)C(=O)O [Compound 65, (2S,2'S)-2,2′-((((2,2′-dichloro-[1,1′-biphenyl]-3,3′-diyl)bis(2-ethyl-4-oxopyrrolo[2,1-f][1,2,4]triazine-6,3(4H)-diyl))bis(ethane-2,1-diyl))bis(azanediyl))bis(3-hydroxypropanoic acid)] | 10 to 100
CC(=O)NC[C@H](NCCn1c(C)cn2nc(-c3cccc(-c4cccc(-c5cc6c(=O)n(CCN[C@@H](CNC(C)=O)C(=O)O)c(C)cn6n5)c4Cl)c3Cl)cc2c1=O)C(=O)O [Compound 68, (2S,2'S)-2,2′-((((2,2′-dichloro-[1,1′-biphenyl]-3,3′-diyl)bis(6-methyl-4-oxopyrazolo[1,5-a]pyrazine-2,5(4H)-diyl))bis(ethane-2,1-diyl))bis(azanediyl))bis(3-acetamidopropanoic acid)] | 10 to 100
Cc1cn2nc(-c3cccc(-c4cccc(-c5cc6c(=O)n(CCN[C@@H](CN(C)C)C(=O)O)c(C)cn6n5)c4Cl)c3Cl)cc2c(=O)n1CCN[C@@H](CN(C)C)C(=O)O [Compound 69, (2S,2'S)-2,2′-((((2,2′-dichloro-[1,1′-biphenyl]-3,3′-diyl)bis(6-methyl-4-oxopyrazolo[1,5-a]pyrazine-2,5(4H)-diyl))bis(ethane-2,1-diyl))bis(azanediyl))bis(3-(dimethylamino)propanoic acid)] | ≥ 100
Cn1c(CCN[C@@H](CO)C(=O)O)cn2nc(-c3cccc(-c4cccc(-c5cc6c(=O)n(C)c(CCN[C@@H](CO)C(=O)O)cn6n5)c4Cl)c3Cl)cc2c1=O [Compound 71, (2S,2'S)-2,2′-((((2,2′-dichloro-[1,1′-biphenyl]-3,3′-diyl)bis(5-methyl-4-oxo-4,5-dihydropyrazolo[1,5-a]pyrazine-2,6-diyl))bis(ethane-2,1-diyl))bis(azanediyl))bis(3-hydroxypropanoic acid)] | < 10
CC(=O)NCCNCc1cn2cc(-c3cccc(-c4cccc(-c5cc6c(=O)[nH]c(CNCCNC(C)=O)cn6c5)c4Cl)c3Cl)cc2c(=O)[nH]1 [Compound 72, N,N′-(((((2,2′-dichloro-[1,1′-biphenyl]-3,3′-diyl)bis(1-oxo-1,2-dihydropyrrolo[1,2-a]pyrazine-7,3-diyl))bis(methylene))bis(azanediyl))bis(ethane-2,1-diyl))diacetamide] | 10 to 100
CC(=O)NCCNCc1cn2cc(-c3cccc(-c4cccc(-c5cc6c(=O)n(C[C@@H]7CCC(=O)N7)c(CNCCNC(C)=O)cn6c5)c4Cl)c3Cl)cc2c(=O)n1C[C@@H]1CCC(=O)N1 [Compound 73, N,N′-(((((2,2′-dichloro-[1,1′-biphenyl]-3,3′-diyl)bis(1-oxo-2-(((S)-5-oxopyrrolidin-2-yl)methyl)-1,2-dihydropyrrolo[1,2-a]pyrazine-7,3-diyl))bis(methylene))bis(azanediyl))bis(ethane-2,1-diyl))diacetamide] | 10 to 100
Cc1cn2nc(-c3cccc(-c4cccc(-c5cc6c(=O)n(C[C@H]7CCNC7)c(C)cn6n5)c4Cl)c3Cl)cc2c(=O)n1C[C@H]1CCNC1 [Compound 81, 2,2′-(2,2′-dichloro-[1,1′-biphenyl]-3,3′-diyl)bis(6-methyl-5-(((S)-pyrrolidin-3-yl)methyl)pyrazolo[1,5-a]pyrazin-4(5H)-one)] | 10 to 100
Cc1cn2nc(-c3cccc(-c4cccc(-c5cc6c(=O)n(CCNC7(C(=O)O)COC7)c(C)cn6n5)c4Cl)c3Cl)cc2c(=O)n1CCNC1(C(=O)O)COC1 [Compound 82, 3,3′-((((2,2′-dichloro-[1,1′-biphenyl]-3,3′-diyl)bis(6-methyl-4-oxopyrazolo[1,5-a]pyrazine-2,5(4H)-diyl))bis(ethane-2,1-diyl))bis(azanediyl))bis(oxetane-3-carboxylic acid)] | ≥ 100

Other lines, results leading:

IC50 [nM] | SMILES
10 to 100 | Cc1cn2cc(-c3cccc(-c4cccc(-c5cc6c(=O)n(CCN[C@@H](CCO)C(=O)O)c(C)cn6c5)c4Cl)c3Cl)cc2c(=O)n1CCN[C@@H](CCO)C(=O)O [Compound 58, (2S,2'S)-2,2′-((((2,2′-dichloro-[1,1′-biphenyl]-3,3′-diyl)bis(3-methyl-1-oxopyrrolo[1,2-a]pyrazine-7,2(1H)-diyl))bis(ethane-2,1-diyl))bis(azanediyl))bis(4-hydroxybutanoic acid)]
10 to 100 | Cc1cn2nc(-c3cccc(-c4cccc(-c5cc6c(=O)n(CCN[C@H](CO)C(=O)O)c(C)cn6n5)c4Cl)c3Cl)cc2c(=O)n1CCN[C@H](CO)C(=O)O [Compound 61, (2R,2′R)-2,2′-((((2,2′-dichloro-[1,1′-biphenyl]-3,3′-diyl)bis(6-methyl-4-oxopyrazolo[1,5-a]pyrazine-2,5(4H)-diyl))bis(ethane-2,1-diyl))bis(azanediyl))bis(3-hydroxypropanoic acid)]
10 to 100 | Cc1cn2nc(-c3cccc(-c4cccc(-c5cc6c(=O)n(CCN[C@@H](CCO)C(=O)O)c(C)cn6n5)c4Cl)c3Cl)cc2c(=O)n1CCN[C@@H](CCO)C(=O)O [Compound 62, (2S,2'S)-2,2′-((((2,2′-dichloro-[1,1′-biphenyl]-3,3′-diyl)bis(6-methyl-4-oxopyrazolo[1,5-a]pyrazine-2,5(4H)-diyl))bis(ethane-2,1-diyl))bis(azanediyl))bis(4-hydroxybutanoic acid)]
10 to 100 | Cc1cn2nc(-c3cccc(-c4cccc(-c5cc6c(=O)n(CCCN[C@@H](CO)C(=O)O)c(C)cn6n5)c4Cl)c3Cl)cc2c(=O)n1CCCN[C@@H](CO)C(=O)O [Compound 70, (2S,2'S)-2,2′-((((2,2′-dichloro-[1,1′-biphenyl]-3,3′-diyl)bis(6-methyl-4-oxopyrazolo[1,5-a]pyrazine-2,5(4H)-diyl))bis(propane-3,1-diyl))bis(azanediyl))bis(3-hydroxypropanoic acid)]
10 to 100 | O=c1[nH]c(C[C@@H]2CCCN2)nn2cc(-c3cccc(-c4cccc(-c5cc6c(=O)[nH]c(C[C@@H]7CCCN7)nn6c5)c4Cl)c3Cl)cc12 [Compound 75, 6′-(2,2′-dichloro-[1,1′-biphenyl]-3,3′-diyl)bis(2-(((S)-pyrrolidin-2-yl)methyl)pyrrolo[2,1-f][1,2,4]triazin-4(3H)-one)]
10 to 100 | Cc1cn2nc(-c3cccc(-c4cccc(-c5cc6c(=O)n(CCN7CCCCC7C(=O)O)c(C)cn6n5)c4Cl)c3Cl)cc2c(=O)n1CCN1CCCCC1C(=O)O (stereo not shown) [Compound 79, 1,1′-(((2,2′-dichloro-[1,1′-biphenyl]-3,3′-diyl)bis(6-methyl-4-oxopyrazolo[1,5-a]pyrazine-2,5(4H)-diyl))bis(ethane-2,1-diyl))bis(piperidine-2-carboxylic acid)]
≥ 100 | Cc1cn2nc(-c3cccc(-c4cccc(-c5cc6c(=O)n(CCN7CCNCC7)c(C)cn6n5)c4Cl)c3Cl)cc2c(=O)n1CCN1CCNCC1 [Compound 83, 2,2′-(2,2′-dichloro-[1,1′-biphenyl]-3,3′-diyl)bis(6-methyl-5-(2-(piperazin-1-yl)ethyl)pyrazolo[1,5-a]pyrazin-4(5H)-one)]
